Reference: paper PMC8948939 (Pharmaceutics, 2022)
Like-named read-outs stand apart in the source and are kept apart here.

How the values were obtained:
HLM = HLM derived from three individuals, cited from earlier work
CYP3A4 [1] = target: T1, CYP3A4 (Homo sapiens, UniProt P08684); assay: Michaelis-Menten kinetics of voriconazole N-oxidation by rhCYP3A4
[2] = taken from literature for IVIVE; ref 7 (supplement); cited from earlier work
[3] = Michaelis-Menten kinetics of voriconazole N-oxidation in human liver microsomes; type: in vitro ADME; conditions: human, human liver microsomes, pH 7.5
[4] = system: human liver microsomes (HLM); assay: as above; type: in vitro ADME; conditions: N-oxidation of voriconazole; HLM 0.2 mg/mL
CYP3A4 [5] = assay: Contribution of CYP3A4 to voriconazole N-oxidation, extrapolation from rhCYP with ISEF; type: in vitro ADME; conditions: human, pH 7.5, VRC N-oxidation, read-out: extrapolated CLint,CYPi,HLM (CYP3A4)
From the text: Towards the Elucidation of the Pharmacokinetics of
Josefine Schulz 1, Antonia Thomas 1, Ayatallah Saleh 1,2, Gerd Mikus 1,3, Charlotte Kloft 1,† and Robin Michelet 1,*,† 1 Department of Clinical Pharmacy & Biochemistry, Institute of Pharmacy, Freie Universitaet Berlin, Kelchstraße 31, 12169 Berlin, Germany
2 Graduate Research Training Program PharMetrX, 12169 Berlin/Potsdam, Germany 3 Department of Clinical Pharmacology and Pharmacoepidemiology, University Hospital Heidelberg, Im Neuenheimer Feld 410, 69120 Heidelberg, Germany
* Correspondence: robin.michelet@fu-berlin.de; Tel.: +49-30-838-50659
† These authors contributed equally to this work
Supplementary Section S1. Marker reactions for CYP2C19, CYP2C9 and CYP3A4 […]
for CYP3A4 [1,2] were used to determine (i) intersystem extrapolation factors (ISEF), (ii) […]
(i) Experiments for the determination of Michaelis-Menten kinetics in HLM were performed at protein concentrations of 0.02, 0.04 and 0.05 mg/mL for the marker reactions of CYP2C19, CYP2C9 and CYP3A4 (n = 3 each), respectively. Two samples were taken from each incubation after 15 and 25 min for investigations on CYP2C19, after 5 and 10 min for CYP2C9 and after 7 and 12 min for CYP3A4, respectively. […]
were applied as substrate concentrations.
For investigations in rhCYP concentrations of 2.5 pmol/mL rhCYP2C19 (n = 3), […]
respectively. […]

CYP2C19 = CYP2C19 (Homo sapiens, UniProt P33261); conditions: read-out: KM of VRC N-oxidation, recombinant CYP2C19, cited from earlier work
Sequence of CYP2C19 (P33261 whole entry): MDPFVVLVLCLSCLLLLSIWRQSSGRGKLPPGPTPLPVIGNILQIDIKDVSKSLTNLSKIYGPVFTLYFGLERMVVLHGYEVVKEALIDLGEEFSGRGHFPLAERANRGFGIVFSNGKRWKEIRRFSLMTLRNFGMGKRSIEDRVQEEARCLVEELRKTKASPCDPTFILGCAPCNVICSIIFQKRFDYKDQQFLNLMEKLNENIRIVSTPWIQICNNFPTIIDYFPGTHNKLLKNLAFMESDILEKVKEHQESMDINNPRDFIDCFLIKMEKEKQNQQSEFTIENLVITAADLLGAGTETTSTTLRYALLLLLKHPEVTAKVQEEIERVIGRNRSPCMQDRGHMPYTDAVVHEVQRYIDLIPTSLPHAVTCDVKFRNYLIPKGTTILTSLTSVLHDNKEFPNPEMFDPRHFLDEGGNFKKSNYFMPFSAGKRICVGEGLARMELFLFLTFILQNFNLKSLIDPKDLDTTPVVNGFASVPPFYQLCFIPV

[6] = system: human intestine microsomes (HIM); assay: Michaelis-Menten kinetics of voriconazole N-oxidation in human intestine microsomes; type: in vitro ADME; conditions: N-oxidation of voriconazole; HIM 0.5 mg/mL
[7] = as above; type: in vitro ADME; conditions: human, human intestine microsomes, pH 7.5
[8] = cited from earlier work
CYP2C9 = CYP2C9 (Homo sapiens, UniProt P11712); set-up: purchased Corning Inc; conditions: read-out: KM of VRC N-oxidation; cited from earlier work
Sequence of CYP2C9 (P11712 whole entry): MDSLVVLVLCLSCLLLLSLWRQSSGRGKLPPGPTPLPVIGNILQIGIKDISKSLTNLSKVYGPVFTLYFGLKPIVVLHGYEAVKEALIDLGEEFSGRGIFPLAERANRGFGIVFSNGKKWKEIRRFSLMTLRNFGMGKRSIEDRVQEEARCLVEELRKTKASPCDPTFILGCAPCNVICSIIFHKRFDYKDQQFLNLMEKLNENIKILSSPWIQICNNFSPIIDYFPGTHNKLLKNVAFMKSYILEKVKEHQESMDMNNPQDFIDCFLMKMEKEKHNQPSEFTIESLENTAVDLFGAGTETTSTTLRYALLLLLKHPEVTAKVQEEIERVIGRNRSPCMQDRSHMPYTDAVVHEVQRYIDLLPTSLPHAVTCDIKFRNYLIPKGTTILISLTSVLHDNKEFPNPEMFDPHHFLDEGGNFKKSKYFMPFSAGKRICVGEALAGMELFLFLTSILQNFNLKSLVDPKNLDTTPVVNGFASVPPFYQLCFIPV

CYP3A4 [9] = target: T1, CYP3A4; set-up: purchased Corning Inc; conditions: cited from earlier work
CYP3A4 [10] = conditions: mixed inhibition, cited from earlier work

T1 sequence (P08684 whole entry): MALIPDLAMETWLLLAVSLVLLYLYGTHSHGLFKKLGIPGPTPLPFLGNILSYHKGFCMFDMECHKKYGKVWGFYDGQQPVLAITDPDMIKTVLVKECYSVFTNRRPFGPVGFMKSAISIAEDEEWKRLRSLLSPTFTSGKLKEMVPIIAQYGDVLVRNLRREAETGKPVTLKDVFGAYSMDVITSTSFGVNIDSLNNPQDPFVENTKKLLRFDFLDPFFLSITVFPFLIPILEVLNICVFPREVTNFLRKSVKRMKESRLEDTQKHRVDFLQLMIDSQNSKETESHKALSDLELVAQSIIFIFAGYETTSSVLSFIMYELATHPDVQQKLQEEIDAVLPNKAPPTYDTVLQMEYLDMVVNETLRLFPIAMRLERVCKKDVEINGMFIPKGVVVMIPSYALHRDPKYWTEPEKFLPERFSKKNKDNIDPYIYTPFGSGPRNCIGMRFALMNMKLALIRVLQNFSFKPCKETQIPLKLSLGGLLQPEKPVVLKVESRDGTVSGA

SMILES: C[C@@H](c1ncncc1F)[C@](O)(Cn1cncn1)c1ccc(F)cc1F [VRC, voriconazole]
- Vmax of VRC N-oxidation (HLM): 9.3 pmol/min/mg
- Km (HLM; read-out: KM of VRC N-oxidation): 8.1 µM
- Vmax,rhCYP (95% CI) (CYP3A4 [1]; N-oxidation of voriconazole): 0.00893 (0.00827–0.00958) pmol/min·pmol
- CLint of VRC N-oxidation (CYP3A4 [1]; ratio of Vmax and KM): 0.00742 µL/min/pmol
- Fraction unbound in plasma (fuP) [2]: 0.5
- microsomal CLint ([3]; HLM, ratio of Vmax and KM): 8.76 µL/min/mg
- Km ([3]; read-out: KM (95% CI)): 2.98 µM
- Vmax,HLM (95% CI) [4]: 26.1 (25.4–26.8) pmol/min·mg
- microsomal CLint (CYP3A4 [5]; ISEF based on CLint of the marker reactions): 1.1 µL/min/mg
- microsomal CLint (CYP3A4 [5]; ISEF based on Vmax): 2.48 µL/min/mg
- Km (CYP2C19; ref 31): 3.5 µM
- Km (CYP2C19; ref 33): 14 ± 6 µM
- Vmax,HIM (95% CI) [6]: 3.85 (3.70–4.00) pmol/min·mg
- microsomal CLint ([7]; HIM, ratio of Vmax and KM): 1.52 µL/min/mg
- Km ([7]; read-out: KM (95% CI)): 2.53 µM
- bioavailability ([8]; CYP2C19 poor metabolizers): 94%
- share of CYP3A4 in the metabolism ([8]; clinical trial, CYP2C19 normal and poor metabolizers with/without ritonavir, ref Mikus et al. 76): 34%
- bioavailability ([8]; extensive metabolizers): 75%
- Km (CYP2C9): 20 µM
- Km (CYP3A4 [9]; read-out: KM of VRC N-oxidation, ref 31): 235 µM
- Km (CYP3A4 [9]; read-out: KM of VRC N-oxidation, ref 33): 16 ± 10 µM
- Vmax of VRC N-oxidation (CYP3A4 [9]; ref 31): 0.14 pmol/min·pmol
- Vmax of VRC N-oxidation (CYP3A4 [9]; ref 33): 0.05 ± 0.01 nmol/min·nmol
